Results reported in the NIST ThermoML archive (doi:10.1007/s10765-013-1526-8).

Experiments:
[1] = refractive index (Na D-line) (dimensionless); xn = mol fraction of the nth substance listed; conditions: 101 kPa, Liquid
[2] = xn = mol fraction of the nth substance listed; conditions: 101 kPa, Liquid; for speed of sound: Sing-around technique in a fixed-path interferometer

Brc1ccccc1 [bromobenzene] + CCCCC(CC)CO
Conditions	mass density, [2] [kg/m3]	refractive index, [1]	speed of sound, [2] [m/s]	viscosity, [2] [mPa·s]
298.15 K, x1 = 0.0623	846.06	1.4348	1305	7.004
298.15 K, x1 = 0.1321	869.44	1.4416	1295	5.672
298.15 K, x1 = 0.202	895.09	1.4486	1290	4.56
298.15 K, x1 = 0.2694	924.23	1.4554	1285	3.717
298.15 K, x1 = 0.336	956.85	1.4625	1281	3.044
298.15 K, x1 = 0.3981	991.69	1.4693	1279	2.553
298.15 K, x1 = 0.4625	1031.18	1.4767	1277	2.187
298.15 K, x1 = 0.5272	1074.92	1.4844	1273	1.923
298.15 K, x1 = 0.5918	1122.9	1.4925	1268	1.728
298.15 K, x1 = 0.6627	1179.58	1.502	1259	1.594
298.15 K, x1 = 0.7278	1235.29	1.5112	1248	1.49
298.15 K, x1 = 0.7941	1295.12	1.5212	1236	1.444
298.15 K, x1 = 0.8633	1359.7	1.5325	1216	1.359
298.15 K, x1 = 0.9266	1418.41	1.5433	1194	1.266
298.15 K, x1 = 1	1488.12	1.557	1153	1.065
303.15 K, x1 = 0.0623	842.3	1.4332	1291	5.889
303.15 K, x1 = 0.1321	864.98	1.4403	1282	4.765
303.15 K, x1 = 0.202	891.19	1.4472	1276	3.838
303.15 K, x1 = 0.2694	920.76	1.4542	1272	3.126
303.15 K, x1 = 0.336	952.81	1.4611	1270	2.577
303.15 K, x1 = 0.3981	986.69	1.4678	1268	2.197
303.15 K, x1 = 0.4625	1026.09	1.475	1266	1.907
303.15 K, x1 = 0.5272	1069.83	1.4826	1264	1.702
303.15 K, x1 = 0.5918	1117.3	1.4906	1261	1.548
303.15 K, x1 = 0.6627	1173.8	1.5	1254	1.458
303.15 K, x1 = 0.7278	1229.12	1.5092	1241	1.39
303.15 K, x1 = 0.7941	1288.41	1.5191	1226	1.355
303.15 K, x1 = 0.8633	1351.6	1.5303	1206	1.297
303.15 K, x1 = 0.9266	1410.1	1.5412	1183	1.205
303.15 K, x1 = 1	1481.4	1.555	1138	1.005
308.15 K, x1 = 0.0623	837.02	1.4306	1279	5.101
308.15 K, x1 = 0.1321	859.74	1.4376	1273	4.181
308.15 K, x1 = 0.202	886.06	1.4447	1267	3.414
308.15 K, x1 = 0.2694	915.17	1.4517	1263	2.814
308.15 K, x1 = 0.336	947.49	1.4587	1259	2.35
308.15 K, x1 = 0.3981	981.89	1.4655	1254	2.004
308.15 K, x1 = 0.4625	1021.03	1.4728	1251	1.722
308.15 K, x1 = 0.5272	1064.57	1.4805	1247	1.522
308.15 K, x1 = 0.5918	1111.88	1.4886	1241	1.37
308.15 K, x1 = 0.6627	1168.02	1.4981	1232	1.265
308.15 K, x1 = 0.7278	1222.21	1.5072	1218	1.192
308.15 K, x1 = 0.7941	1279.2	1.5171	1203	1.149
308.15 K, x1 = 0.8633	1339.82	1.528	1183	1.099
308.15 K, x1 = 0.9266	1398.8	1.5388	1161	1.052
308.15 K, x1 = 1	1474.58	1.553	1122	0.972

CCCCC(CC)CO (stereo not given) [2-ethyl-1-hexanol] + c1ccccc1
Conditions	mass density, [2] [kg/m3]	refractive index, [1]	speed of sound, [2] [m/s]	viscosity, [2] [mPa·s]
298.15 K, x2 = 0	829.07	1.4287	1319	8.418
298.15 K, x2 = 0.0606	829.89	1.4332	1313	7.185
298.15 K, x2 = 0.1203	830.77	1.4376	1308	6.102
298.15 K, x2 = 0.1798	831.79	1.4418	1304	5.153
298.15 K, x2 = 0.2384	832.95	1.4463	1299	4.364
298.15 K, x2 = 0.3132	834.73	1.4519	1293	3.469
298.15 K, x2 = 0.3915	836.9	1.4577	1288	2.697
298.15 K, x2 = 0.4515	838.87	1.4624	1283	2.222
298.15 K, x2 = 0.526	841.73	1.468	1278	1.749
298.15 K, x2 = 0.5849	844.27	1.4726	1275	1.474
298.15 K, x2 = 0.6557	847.83	1.4778	1273	1.202
298.15 K, x2 = 0.726	851.85	1.4829	1272	1.008
298.15 K, x2 = 0.7937	856.26	1.4877	1273	0.866
298.15 K, x2 = 0.8592	861.07	1.492	1276	0.764
298.15 K, x2 = 0.9299	867.04	1.4953	1284	0.68
303.15 K, x2 = 0	825.39	1.4266	1301	7.144
303.15 K, x2 = 0.0606	826.11	1.4312	1297	5.969
303.15 K, x2 = 0.1203	826.92	1.4355	1292	4.984
303.15 K, x2 = 0.1798	827.89	1.4397	1287	4.114
303.15 K, x2 = 0.2384	828.98	1.4442	1282	3.409
303.15 K, x2 = 0.3132	830.66	1.4499	1275	2.624
303.15 K, x2 = 0.3915	832.74	1.4557	1269	2.002
303.15 K, x2 = 0.4515	834.63	1.4604	1264	1.621
303.15 K, x2 = 0.526	837.35	1.4661	1258	1.305
303.15 K, x2 = 0.5849	839.78	1.4708	1255	1.127
303.15 K, x2 = 0.6557	843.22	1.4761	1252	0.953
303.15 K, x2 = 0.726	847.09	1.4811	1252	0.852
303.15 K, x2 = 0.7937	851.36	1.4858	1253	0.758
303.15 K, x2 = 0.8592	856.01	1.4899	1256	0.701
303.15 K, x2 = 0.9299	861.77	1.4934	1264	0.654
308.15 K, x2 = 0	821.68	1.4245	1283	6.09
308.15 K, x2 = 0.0606	822.28	1.4292	1278	5.084
308.15 K, x2 = 0.1203	823.05	1.4335	1273	4.22
308.15 K, x2 = 0.1798	823.96	1.4378	1269	3.49
308.15 K, x2 = 0.2384	825.01	1.4423	1265	2.903
308.15 K, x2 = 0.3132	826.61	1.448	1260	2.272
308.15 K, x2 = 0.3915	828.57	1.4539	1255	1.741
308.15 K, x2 = 0.4515	830.4	1.4585	1252	1.451
308.15 K, x2 = 0.526	832.98	1.4642	1248	1.174
308.15 K, x2 = 0.5849	835.32	1.4689	1245	1.02
308.15 K, x2 = 0.6557	838.62	1.4743	1242	0.881
308.15 K, x2 = 0.726	842.36	1.4793	1240	0.785
308.15 K, x2 = 0.7937	846.49	1.4839	1239	0.713
308.15 K, x2 = 0.8592	850.99	1.4879	1240	0.659
308.15 K, x2 = 0.9299	856.56	1.4913	1243	0.605
